# Experimental data published in PubChem BioAssay AID504755 (Southern Research Specialized Biocontainment Screening …, 2011).
# Active and inactive are the calls of the source.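 The calls were made as follows: active = viability under 80% of untreated control mean at any tested dose, taken as cytotoxic; inactive = the rest.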
# System: PC3 viability, CellTiter-Glo luminescence, 72 h
# Assay: PC3 prostate cell cytotoxicity, dose response, cytotoxicity control for HSV oncolysis enhancer project, selected hits (AID 504755)
row,Structure (SMILES),CC50
1,COc1ccc(C(=O)OCCN2CCCN(CCOC(=O)c3ccc(OC)cc3)CC2)cc1,> 100 µM (inactive)
2,CN1CCCN(CCCOC(=O)c2ccccc2)CC1,> 100 µM (inactive)
3,COc1cc(OC)cc(C(=O)OCCCNCCNCCCOC(=O)c2cc(OC)cc(OC)c2)c1,31.7 µM
4,CN1CCCN(CCCOC(=O)c2ccc(F)cc2)CC1,> 100 µM (inactive)
5,COc1ccc(C(=O)OCCCN2CCCN(C)CC2)cc1,> 100 µM (inactive)
6,NCCCN1CCCN(CCCN)CC1,> 100 µM (inactive)
7,COc1ccc(C(=O)OCCCN2CCCC2)cc1,> 100 µM (inactive)
8,COc1cc(C(=O)OCCCN2CCCN(CCCOC(=O)c3cc(OC)c(OC)c(OC)c3)CC2)cc(OC)c1OC,> 100 µM (inactive)
9,COc1ccc(C(=O)OCCN2CCCN(Cc3ccccc3)CC2)cc1,> 100 µM (inactive)
10,O=C(CCN1CCCN(CCC(=O)Nc2ccccc2)CC1)Nc1ccccc1,> 100 µM (inactive)
11,COc1cc(-c2cn(CCCN3CCCN(CCCn4cc(-c5cc(OC)c(OC)c(OC)c5)nn4)CC3)nn2)cc(OC)c1OC,> 100 µM (inactive)
12,COc1ccc(C(=O)OCCN2CCN(C)CC2)cc1,> 100 µM (inactive)
13,COc1cccc(C(=O)NCCCN2CCN(CCCNC(=O)c3cccc(OC)c3)CC2)c1,> 100 µM (inactive)
14,CC(=O)NCCCN1CCCN(CCCNC(C)=O)CC1,> 100 µM (inactive)
15,O=C(CN1CCCN(CC(=O)CN2C(=O)c3ccccc3C2=O)CC1)CN1C(=O)c2ccccc2C1=O,> 100 µM (inactive)
16,COc1cc(C(=O)OCCCN2CCCNCC2)cc(OC)c1OC,> 100 µM (inactive)
17,COc1ccc(C(=O)OCCN2CCCN(C)CC2)cc1,> 100 µM (inactive)
18,CNCCN(C)CCCOC(=O)c1ccc(OC)cc1,> 100 µM (inactive)
19,COc1cc(C(=O)OCCCN2CCCN(C(C)=O)CC2)cc(OC)c1OC,> 100 µM (inactive)
20,CN1CCN(CCCOC(=O)c2ccccc2)CC1,> 100 µM (inactive)
21,COc1cc(NC(=O)Nc2cc(OC)c(OC)c(OC)c2)cc(OC)c1OC,> 100 µM (inactive)
22,COc1cc(OC)cc(C(=O)OCCN2CCCN(C)CC2)c1,> 100 µM (inactive)
23,COc1cc(OC)cc(C(=O)OCCCN2CCN(C)CC2)c1,> 100 µM (inactive)

row,Structure (SMILES),CC50
1,COc1cc(OC)cc(C(=O)OCCN2CCOCC2)c1,> 100 µM (inactive)
2,COc1ccc(C(=O)OCCCNCCNCCCOC(=O)c2ccc(OC)cc2)cc1,24.1 µM
3,O=C(OCCCN1CCCN(CCCOC(=O)c2ccc(F)cc2)CC1)c1ccc(F)cc1,73.6 µM
4,COc1cc(C(=O)OCCN2CCCN(CCOC(=O)c3cc(OC)c(OC)c(OC)c3)CC2)cc(OC)c1OC,> 100 µM (inactive)
5,COc1cc(OC)cc(C(=O)OCCN2CCCC2)c1,> 100 µM (inactive)
6,COc1cc(OC)cc(C(=O)OCCN2CCN(CCOC(=O)c3cc(OC)cc(OC)c3)CC2)c1,> 100 µM (inactive)
7,COc1ccc(C(=O)OCCCN2CCOCC2)cc1,> 100 µM (inactive)
8,CN1CCN(CCCOC(=O)c2ccc(F)cc2)CC1,> 100 µM (inactive)
9,COc1cc(C(=O)OCCN2CCCN(C)CC2)cc(OC)c1OC,> 100 µM (inactive)
10,COc1cc(OC)cc(C(=O)OCCN2CCCN(CCOC(=O)c3cc(OC)cc(OC)c3)CC2)c1,> 100 µM (inactive)
11,COc1cc(OC)cc(C(=O)OCCCN2CCN(CCCOC(=O)c3cc(OC)cc(OC)c3)CC2)c1,102 µM
12,COc1cc(OC)cc(C(=O)OCCCN2CCCN(Cc3ccccc3)CC2)c1,> 100 µM (inactive)
13,COc1cc(C(=O)OCCCN2CCCN(C(=O)OC(C)(C)C)CC2)cc(OC)c1OC,> 100 µM (inactive)
14,COc1cc(C(=O)OCCN2CCN(C)CC2)cc(OC)c1OC,> 100 µM (inactive)
15,COc1ccc(C(=O)OCCCN2CCN(CCCOC(=O)c3ccc(OC)cc3)CC2)cc1,> 100 µM (inactive)
16,COc1ccc(C(=O)NCCCN2CCCN(C)CC2)cc1,> 100 µM (inactive)
17,COc1ccc(C(=O)OCCN2CCN(CCOC(=O)c3ccc(OC)cc3)CC2)cc1,> 100 µM (inactive)
18,COc1cc(OC)cc(C(=O)OCCCN2CCCN(C)CC2)c1,> 100 µM (inactive)
19,COc1cc(C(=O)OCCCN2CCCN(C)CC2)cc(OC)c1OC,> 100 µM (inactive)
20,COc1cc(C(=O)OCCCN2CCCC2)cc(OC)c1OC,> 100 µM (inactive)
21,O=C(OCCCN1CCN(CCCOC(=O)c2ccccc2)CC1)c1ccccc1,> 100 µM (inactive)
22,CNCCN(C)CCCOC(=O)c1ccc(F)cc1,> 100 µM (inactive)
23,COc1cc(COCCCN2CCCN(CCCOCc3cc(OC)c(OC)c(OC)c3)CC2)cc(OC)c1OC,> 100 µM (inactive)

row,Structure (SMILES),CC50
1,COc1cc(C(=O)OCCN2CCN(CCOC(=O)c3cc(OC)c(OC)c(OC)c3)CC2)cc(OC)c1OC,> 100 µM (inactive)
2,COc1cc(C(=O)NCCCN2CCCN(CCCNC(=O)c3cc(OC)c(OC)c(OC)c3)CC2)cc(OC)c1OC,> 100 µM (inactive)
3,COc1cc(NC(=O)N2CCCN(C(=O)Nc3cc(OC)c(OC)c(OC)c3)CC2)cc(OC)c1OC,> 100 µM (inactive)
4,COc1cc(C(=O)OCCCN2CCOCC2)cc(OC)c1OC,> 100 µM (inactive)
5,COc1cc(C(=O)OCCCN2CCCN(C(=O)c3ccccc3)CC2)cc(OC)c1OC,> 100 µM (inactive)
6,COc1cc(C(=O)OCCCN2CCN(CCCOC(=O)c3cc(OC)c(OC)c(OC)c3)CC2)cc(OC)c1OC,> 100 µM (inactive)
7,COc1cc(C(=O)OCCCN2CCN(C)CC2)cc(OC)c1OC,> 100 µM (inactive)
8,COc1cc(CN2CCCN(Cc3cc(OC)c(OC)c(OC)c3)CC2)cc(OC)c1OC,> 100 µM (inactive)
9,COc1cc(C(=O)OCCN2CCCC2)cc(OC)c1OC,> 100 µM (inactive)
10,COc1cc(C(=O)OCCCN(C)CCN(C)CCCOC(=O)c2cc(OC)c(OC)c(OC)c2)cc(OC)c1OC,> 100 µM (inactive)
11,CNCCN(C)CCOC(=O)c1cc(OC)cc(OC)c1,> 100 µM (inactive)
12,O=C(OCCCN1CCOCC1)c1ccc(F)cc1,> 100 µM (inactive)
13,COc1ccc(N2C(=O)CC(N3CCCN(C4CC(=O)N(c5ccc(OC)cc5)C4=O)CC3)C2=O)cc1 (stereo not drawn),> 100 µM (inactive)
14,COc1cc(C(=O)OCCN2CCCN(Cc3ccccc3)CC2)cc(OC)c1OC,> 100 µM (inactive)
15,O=C(/C=C/c1ccc2c(c1)OCO2)N1CCCN(C(=O)/C=C/c2ccc3c(c2)OCO3)CC1,> 100 µM (inactive)
16,O=C(NCCCN1CCN(CCCNC(=O)c2ccc3c(c2)OCO3)CC1)c1ccc2c(c1)OCO2,> 100 µM (inactive)
17,O=C(OCCCN1CCN(CCCOC(=O)c2ccc(F)cc2)CC1)c1ccc(F)cc1,> 100 µM (inactive)
18,CNCCN(C)CCOC(=O)c1cc(OC)c(OC)c(OC)c1,> 100 µM (inactive)
19,COc1cc(C(=O)N2CCCN(C(=O)c3cc(OC)c(OC)c(OC)c3)CC2)cc(OC)c1OC,> 100 µM (inactive)
20,COc1cc(OC)cc(C(=O)OCCN2CCN(C)CC2)c1,> 100 µM (inactive)
21,COc1ccc(C(=O)OCCCN2CCN(C)CC2)cc1,> 100 µM (inactive)
22,COc1cc(C(=O)OCCN2CCOCC2)cc(OC)c1OC,> 100 µM (inactive)
